In this assay the target is T1, human mAChR M4 (Homo sapiens, UniProt P08173).
T1 construct: expressed in transfected cells; host or cells: CHO-K1 (ATCC), stably expressing hM4 and Gqi5
T1 sequence (P08173 1-479): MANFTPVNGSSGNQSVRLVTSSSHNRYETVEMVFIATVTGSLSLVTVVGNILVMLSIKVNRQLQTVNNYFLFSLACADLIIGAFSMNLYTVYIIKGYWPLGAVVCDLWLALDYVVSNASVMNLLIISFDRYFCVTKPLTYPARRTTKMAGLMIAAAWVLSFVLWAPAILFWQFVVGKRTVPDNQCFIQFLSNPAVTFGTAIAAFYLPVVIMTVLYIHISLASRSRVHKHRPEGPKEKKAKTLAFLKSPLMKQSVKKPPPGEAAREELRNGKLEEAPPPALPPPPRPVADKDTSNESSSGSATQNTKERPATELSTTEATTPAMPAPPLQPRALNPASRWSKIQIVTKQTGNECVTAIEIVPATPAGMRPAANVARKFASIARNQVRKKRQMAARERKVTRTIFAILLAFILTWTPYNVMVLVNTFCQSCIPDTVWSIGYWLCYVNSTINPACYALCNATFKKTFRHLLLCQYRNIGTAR
Kind of assay: mAChR M4 cell-based functional assay: calcium flux (Fluo-4, FDSS), positive allosteric modulator activity on the EC20 acetylcholine response, hM4-Gqi5 CHO-K1 cells. The conditions noted are these: for Emax at 30 µM: CHO-K1, human M4, % ACh maximum at 30 μM; for EC50: human M4, PAM activity on EC20 acetylcholine response, calcium flux, read-out: Human M4 EC50. The procedure: Human M4 cDNA, along with the chimeric G protein Gqi5, were transfected into Chinese hamster ovary (CHO-K1) cells purchased from the American Type Culture Collection using commercially available Lipofectamine 2000 transfection reagent (Dalby, B. et al., Methods (2004) 33(2), 95-103). hM4-Gqi5 cells were grown in Ham's F-12 medium containing 10% heat-inactivated fetal bovine serum (FBS), 20 mM […], 50 μg/mL G418 sulfate (CAS #108321-42-2), and 500 μg/mL Hygromycin B. rM4-Gqi5 cells were grown in DMEM containing 10% heat-inactivated FBS, 20 mM HEPES, 400 μg/mL G418 sulfate, and 500 μg/mL Hygromycin B.
For high throughput measurement of agonist-evoked increases in intracellular calcium, CHO-K1 cells stably expressing muscarinic receptors were plated in growth medium lacking G418 sulfate and hygromycin at 15,000 cells/20 μL/well in Greiner 384-well black-walled, tissue culture (TC)-treated, clear-bottom plates (VWR). Cells were incubated overnight at 37° C. and 5% C02. The next day, cells were washed using an ELX 405 (BioTek) with assay buffer; the final volume was then aspirated to 20 μL. Next, 20 μL of a 2.3 μM stock of Fluo-4/acetoxymethyl ester (Invitrogen, Carlsbad, CA), prepared as a 2.3 mM stock in DMSO and mixed in a 1:1 ratio with 10% (w/v) Pluronic F-127 and diluted in assay buffer, was added to the wells and the cell plates were incubated for 50 minutes at 37° C. and 5% C02. Dye was removed by washing with the ELX 405 and the final volume was aspirated to 20 μL. Compound master plates were formatted in an 11 point concentration-response curve (CRC) format (1:3 dilutions) in 100% DMSO with a starting concentration of 10 mM using a BRAVO liquid handler (Agilent). Test compound CRCs were then transferred to daughter plates (240 nL) using the Echo acoustic plate reformatter (Labcyte, Sunnyvale, CA) and then diluted into assay buffer (40 μL) to a 2× stock using a Thermo Fisher Combi (Thermo Fisher Scientific, Waltham, MA).
Calcium flux was measured using the Functional Drug Screening System (FDSS) 6000 or 7000 (Hamamatsu Corporation, Tokyo, Japan) as an increase in the fluorescent static ratio. Compounds were applied to cells (20 μL, 2×) using the automated system of the FDSS at 2-4 seconds into the protocol and the data were collected at 1 Hz. At 144 seconds, 10 μL of an EC20 concentration of the muscarinic receptor agonist acetylcholine was added (5×), followed by the addition of 12 μL of an EC80 concentration of acetylcholine at the 230 second time point (5×). Agonist activity was analyzed as a concentration-dependent increase in calcium mobilization upon compound addition. Positive allosteric modulator activity was analyzed as a concentration-dependent increase in the EC20 acetylcholine response. With the acetylcholine EC20 set as baseline, the test compound EC50 is determined as the concentration that produces an increase above baseline of 50% of the maximum increase in acetylcholine response elicted by the test compound. Antagonist activity was analyzed as a concentration-dependent decrease in the ECso acetylcholine response. Concentration-response curves were generated using a four-parameter logistical equation in XLFit curve fitting software (IDBS, Bridgewater, NJ) for Excel (Microsoft, Redmond, WA) or Prism (GraphPad Software, Inc., San Diego, CA).
Compounds were synthesized as described above. Activity (EC50 and Emax) was determined in the mAChR M4 cell-based functional assay as described above and the data are shown in Table 4. The compound numbers correspond to the compound numbers used in Examples 1-33 and Tables 1, 2, and 3.
In general terms: Calcium assays in cells follow changes in intracellular calcium, usually with a dye or a luminescent sensor.

As usually defined, the Emax is the maximal effect, on the per cent scale that the assay sets. A word on the EC50: it is the concentration needed to bring the measured effect to its halfway point.

In the case of `Cc1nc(N2CCc3ncc(-c4cn(C)nc4C)cc3C2)c2cc(C(F)(F)F)ccc2n1` [Compound 57, 4-[3-(1,3-dimethylpyrazol-4-yl)-7,8-dihydro-5H-1,6-naphthyridin-6-yl]-2-methyl-6-(trifluoromethyl)quinazoline], the Emax at 30 µM stood at 59% and the EC50 worked out at 2890 nM.

With `Cc1cn(C)nc1-c1cnc2c(c1)CN(c1nc(C(F)(F)F)nc3ccc(F)cc13)CC2` [Compound 64, 4-[3-(1,4-dimethylpyrazol-3-yl)-7,8-dihydro-5H-1,6-naphthyridin-6-yl]-6-fluoro-2-(trifluoromethyl)quinazoline], the maximal response (Emax) at 30 µM turned out to be 69% and the EC50 was determined as 510 nM.

Turning to `Cc1nc(N2CCc3ncc(N4CCOc5ncccc54)cc3C2)c2cc(F)ccc2n1` [Compound 85, 1-[6-(6-fluoro-2-methyl-quinazolin-4-yl)-7,8-dihydro-5H-1,6-naphthyridin-3-yl]-2,3-dihydropyrido[2,3-b][1,4]oxazine], the Emax at 30 µM came out at 85% and the half-maximal effective concentration (EC50) was determined as 30 nM.

On to `Clc1ccc2ncnc(N3CCc4ncc(N5CCOc6ncccc65)cc4C3)c2c1` [Compound 105, 1-[6-(6-chloroquinazolin-4-yl)-7,8-dihydro-5H-1,6-naphthyridin-3-yl]-2,3-dihydropyrido[2,3-b][1,4]oxazine], for which the Emax at 30 µM came to 91% and the EC50 came to 70 nM.

Turning to `Cc1ccc2nc(C)nc(N3CCc4ncc(-c5cn(C)nc5C)cc4C3)c2c1` [Compound 32, 4-[3-(1,3-dimethylpyrazol-4-yl)-7,8-dihydro-5H-1,6-naphthyridin-6-yl]-2,6-dimethyl-quinazoline], the maximum response (Emax) at 30 µM is 84% and the 50% effective concentration (EC50) is 780 nM.

On to `Fc1cc2ncnc(N3CCc4ncc(Nc5cccnc5F)cc4C3)c2cc1F` [Compound 243, 6-(6,7-difluoroquinazolin-4-yl)-N-(2-fluoropyridin-3-yl)-5,6,7,8-tetrahydro-1,6-naphthyridin-3-amine], for which the Emax at 30 µM was 91% and the EC50 was found to be 70 nM.

Regarding `Cc1ccccc1-c1cnc2c(c1)CN(c1ncnc3ccc(F)cc13)CC2` [Compound 292, 6-fluoro-4-(3-(o-tolyl)-7,8-dihydro-1,6-naphthyridin-6(5H)-yl)quinazoline], the Emax at 30 µM came out at 79% and the EC50 is 660 nM.

With `C[C@H]1CCN(c2cnc3c(c2)CN(c2ncnc4ccc(F)cc24)CC3)c2ccnn21` [Compound 289, (S)-6-fluoro-4-(3-(7-methyl-6,7-dihydropyrazolo[1,5-a]pyrimidin-4(5H)-yl)-7,8-dihydro-1,6-naphthyridin-6(5H)-yl)quinazoline], the Emax at 30 µM was 72% and the EC50 was 490 nM.

As to `Cc1nc(N2CCc3ncc(-c4c(C)cnn4C)cc3C2)c2cc(Cl)ccc2n1` [Compound 256, 6-chloro-4-(3-(1,4-dimethyl-1H-pyrazol-5-yl)-7,8-dihydro-1,6-naphthyridin-6(5H)-yl)-2-methylquinazoline], the Emax at 30 µM was found to be 94% and the EC50 was found to be 140 nM.

For the compound `Fc1ccc2ncnc(N3CCc4ncc(N5CCCn6nc(C7CC7)cc65)cc4C3)c2c1` [Compound 280, 4-(3-(2-cyclopropyl-6,7-dihydropyrazolo[1,5-a]pyrimidin-4(5H)-yl)-7,8-dihydro-1,6-naphthyridin-6(5H)-yl)-6-fluoroquinazoline], the Emax at 30 µM worked out at 90% and the half-maximal effective concentration (EC50) was determined as 390 nM.

Take `CC1CN(c2ncnc3ccc(F)cc23)Cc2cc(NC3CCCC3)cnc21` (stereo not shown) [Compound 233, N-cyclopentyl-6-(6-fluoroquinazolin-4-yl)-8-methyl-5,6,7,8-tetrahydro-1,6-naphthyridin-3-amine]: the Emax at 30 µM worked out at 84% and the EC50 worked out at 410 nM.

`CC(C)(O)CNc1nc(N2CCc3ncc(N4CCCn5nccc54)cc3C2)c2cccnc2n1` [Compound 247, 1-((4-(3-(6,7-dihydropyrazolo[1,5-a]pyrimidin-4(5H)-yl)-7,8-dihydro-1,6-naphthyridin-6(5H)-yl)pyrido[2,3-d]pyrimidin-2-yl)amino)-2-methylpropan-2-ol]: the Emax at 30 µM was determined as 80% and the EC50 is 370 nM.

`Cc1nc(N2CCc3ncc(-c4cn(C)nc4C)cc3C2)c2cc(F)ccc2n1` [Compound 10, 4-[3-(1,3-dimethylpyrazol-4-yl)-7,8-dihydro-5H-1,6-naphthyridin-6-yl]-6-fluoro-2-methyl-quinazoline]: the Emax at 30 µM turned out to be 90% and the EC50 worked out at 120 nM.

Turning to `COc1cc2c(N3CCc4ncc(C(F)(F)F)cc4C3)nc(C)nc2cc1F` [Compound 169, 7-fluoro-6-methoxy-2-methyl-4-[3-(trifluoromethyl)-7,8-dihydro-5H-1,6-naphthyridin-6-yl]quinazoline], the Emax at 30 µM was 74% and the EC50 was determined as 260 nM.

In the case of `COc1cc2c(N3CCc4ncc(-c5cn(C)nc5C)cc4C3)nc(C)nc2cc1F` [Compound 61, 4-[3-(1,3-dimethylpyrazol-4-yl)-7,8-dihydro-5H-1,6-naphthyridin-6-yl]-7-fluoro-6-methoxy-2-methyl-quinazoline], the Emax at 30 µM is 57% and the EC50 came out at 450 nM.

For `Fc1cc2ncnc(N3CCc4ncc(N5CCCn6nccc65)cc4C3)c2cc1F` [Compound 93, 4-[3-(6,7-dihydro-5H-pyrazolo[1,5-a]pyrimidin-4-yl)-7,8-dihydro-5H-1,6-naphthyridin-6-yl]-6,7-difluoro-quinazoline], the Emax at 30 µM is 109% and the EC50 amounted to 50 nM.

For the compound `CC1CN(c2ncnc3ccc(F)cc23)Cc2cc(N3CCOCC3)cnc21` (stereo not shown) [Compound 236, 4-(6-(6-fluoroquinazolin-4-yl)-8-methyl-5,6,7,8-tetrahydro-1,6-naphthyridin-3-yl)morpholine], the Emax at 30 µM came out at 86% and the 50% effective concentration (EC50) came out at 140 nM.

In the case of `CC(O)(c1cnc2c(c1)CN(c1ncnc3cc(F)c(F)cc13)CC2)C(F)(F)F` (stereo not shown) [Compound 290, 2-(6-(6,7-difluoroquinazolin-4-yl)-5,6,7,8-tetrahydro-1,6-naphthyridin-3-yl)-1,1,1-trifluoropropan-2-ol], the Emax at 30 µM amounted to 91% and the EC50 came to 200 nM.

For the compound `COc1ccc2ncnc(N3CCc4ncc(-c5cn(C)nc5C)cc4C3)c2c1` [Compound 13, 4-[3-(1,3-dimethylpyrazol-4-yl)-7,8-dihydro-5H-1,6-naphthyridin-6-yl]-6-methoxy-quinazoline], the Emax at 30 µM was 109% and the EC50 came to 370 nM.

On to `Cc1nc(N2CCc3ncc(-c4cnn(C5CC5)c4)cc3C2)c2cc(F)ccc2n1` [Compound 5, 4-[3-(1-cyclopropylpyrazol-4-yl)-7,8-dihydro-5H-1,6-naphthyridin-6-yl]-6-fluoro-2-methyl-quinazoline], for which the Emax at 30 µM came to 80% and the concentration for a half-maximal effect (EC50) stood at 340 nM.
